# Assay results as given in publication PMC9204419, “A Toolbox for the Generation of Chemical Probes for Baculovirus IAP Repeat Containing Proteins” (Frontiers in Cell and Developmental Biology, 2022).
# Where two headings read alike, the source gives them in different places. Starred links: 1 amine or outer side, 2 acyl side, 3 side chain; linkers in the order of their positions; H or OH if unused. Positions of bridges follow the written chain, without caps; N, C: chain ends. Non-standard residues stand in square brackets, D forms with d. Residues, ends and D or L forms follow the SMILES beside them. Chains are numbered I, II in the order given. Hexamethylenediamine = C(CCCN[*:2])CCN[*:1]; Dip = N[C@H](C(=O)O)C(c1ccccc1)c1ccccc1; Chg = N[C@H](C(=O)O)C1CCCCC1; NMeA = CN[C@@H](C)C(=O)O
# B1: fluorescently labeled SMAC probe (AVPIAQKSEK-K(5-FAM)-NH2) (peptide)
# peptide: AVPIAQKSEKK
# modifications: 5-FAM on the C-terminal lysine (K(5-FAM)); C-terminal amide (NH2)
# notes: two lysines that follow the SMAC stretch; the last one carries 5-FAM; Probably a synthetic peptide; also called fluorescent SMAC mimetic; tracer
# Columns and labels:
# BIRC2-BIR3 domain [1] = biological target: T1, BIRC2-BIR3 domain (Homo sapiens, UniProt Q13490); assay: Differential scanning fluorimetry (DSF); conditions: for ΔTm [°C] (Supplementary Table S1): technical replicate
# Method: Purified proteins were buffered in DSF buffer (25 mM HEPES pH 7.5, 500 mM NaCl) and were assayed in a 384-well plate (Thermo, #BC3384) with a final protein concentration of 20 μM in 10 μL final assay volume. Inhibitors were added in excess to a final concentration of 40 μM, using an ECHO 550 acoustic dispenser (Labcyte). As a fluorescent probe, SYPRO-Orange (Molecular Probes) was used at 5x final concentration. […] Data was analyzed using Boltzmann-equation in the Protein Thermal Shift software (Applied Biosystems). Samples were measured in technical triplicates.
# The assay was run in the presence of DMSO to exclude DMSO influences towards melting temperature differences when testing small molecules (Figures 2C,D).
# BIRC2 = BIRC2 (Homo sapiens, UniProt Q13490); assay: NanoBRET cellular target engagement, full-length BIRC2
# Method: (§1) In brief: Constructs contained the cDNA of full-length or single domains cloned in frame with an N-terminal NanoLuc-fusion as specified in Supplementary Table S2. Plasmids were transfected into HEK293T cells using FuGENE HD (Promega, E2312) and proteins were allowed to express for 20 h. […] The corresponding transfected cells were added and reseeded at a density of 2.5^5 cells/mL after trypsinization and resuspending in Opti-MEM without phenol red (Life Technologies). […] Competitive displacement data were then graphed using GraphPad Prism 9.3 software using a normalized 3-parameter curve fit with the following equation: Y = 100/(1 + 10^(X-LogIC50)).
# BIRC3 = BIRC3 (Homo sapiens, UniProt Q13489); assay: NanoBRET cellular target engagement, full-length BIRC3
# Method: as §1
# BIRC4 = BIRC4 (Homo sapiens, UniProt P98170); assay: NanoBRET cellular target engagement, full-length BIRC4
# BIRC7 = biological target: T2, BIRC7 (Homo sapiens, UniProt Q96CA5); assay: NanoBRET cellular target engagement, full-length BIRC7
# T2 sequence (Q96CA5 1-298): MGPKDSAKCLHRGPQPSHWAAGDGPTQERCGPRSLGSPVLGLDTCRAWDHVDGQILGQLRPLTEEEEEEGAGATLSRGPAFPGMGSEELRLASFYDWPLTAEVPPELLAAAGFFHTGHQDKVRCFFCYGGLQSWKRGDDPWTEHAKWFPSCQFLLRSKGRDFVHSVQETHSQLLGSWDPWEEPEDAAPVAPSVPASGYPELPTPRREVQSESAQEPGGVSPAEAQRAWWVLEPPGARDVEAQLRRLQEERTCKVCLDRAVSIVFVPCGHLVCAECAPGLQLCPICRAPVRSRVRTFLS
# BIRC8 = biological target: T3, BIRC8 (Homo sapiens, UniProt Q96P09); assay: NanoBRET cellular target engagement, full-length BIRC8
# T3 sequence (Q96P09 1-236): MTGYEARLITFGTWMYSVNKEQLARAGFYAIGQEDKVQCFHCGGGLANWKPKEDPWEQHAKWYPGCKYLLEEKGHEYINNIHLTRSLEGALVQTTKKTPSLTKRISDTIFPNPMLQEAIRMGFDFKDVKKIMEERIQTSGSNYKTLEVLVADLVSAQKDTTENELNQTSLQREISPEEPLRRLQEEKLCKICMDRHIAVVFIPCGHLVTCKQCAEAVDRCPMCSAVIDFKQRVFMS
# Method: as §1
# BIRC7 BIR = biological target: T4, BIRC7 BIR (Homo sapiens, UniProt Q96CA5); assay: NanoBRET cellular target engagement, single domain BIRC7 BIR
# T4 sequence (Q96CA5 70-176): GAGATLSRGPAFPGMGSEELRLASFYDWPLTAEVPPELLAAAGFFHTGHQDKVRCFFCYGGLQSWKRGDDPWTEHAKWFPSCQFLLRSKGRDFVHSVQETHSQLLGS
# BIRC8 BIR = biological target: T5, BIRC8 BIR (Homo sapiens, UniProt Q96P09); assay: NanoBRET cellular target engagement, single domain BIRC8 BIR
# T5 sequence (Q96P09 1-90): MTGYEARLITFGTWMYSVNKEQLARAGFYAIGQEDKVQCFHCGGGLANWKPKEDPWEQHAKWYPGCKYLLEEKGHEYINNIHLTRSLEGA
# Method: as §1
# BIRC2 BIR2 = BIRC2 BIR2 (Homo sapiens, UniProt Q13490); assay: NanoBRET cellular target engagement, single domain BIRC2 BIR2
# Method: as §1
# BIRC3 BIR2 = BIRC3 BIR2 (Homo sapiens, UniProt Q13489); assay: NanoBRET cellular target engagement, single domain BIRC3 BIR2
# BIRC2 BIR3 = BIRC2 BIR3 (Homo sapiens, UniProt Q13490); assay: NanoBRET cellular target engagement, single domain BIRC2 BIR3
# Method: as §1
# BIRC3 BIR3 = BIRC3 BIR3 (Homo sapiens, UniProt Q13489); assay: NanoBRET cellular target engagement, single domain BIRC3 BIR3
# Method: as §1
# BIRC1 BIR[2] = biological target: T6, BIRC1 BIR[2] (Homo sapiens, UniProt Q13075); assay: NanoBRET cellular target engagement, single domain BIRC1 BIR[2]
# T6 sequence (Q13075 139-251): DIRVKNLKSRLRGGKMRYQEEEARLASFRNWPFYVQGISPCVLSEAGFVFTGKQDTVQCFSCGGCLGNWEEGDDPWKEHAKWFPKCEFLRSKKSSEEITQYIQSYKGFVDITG
# Method: as §1
# BIRC2-BIR3 domain [3] = biological target: T1, BIRC2-BIR3 domain; assay: Fluorescence polarization (FP) competition assay with fluorescent SMAC probe; assay type: binding; set-up: BIRC2-BIR3 domain (260–352) was expressed; His6 (N, cleaved yes); GST (N, cleaved yes); made in house; host or cells: E. coli; conditions: read-out: FP Assay K I Values
# Method: Resulting data was plotted using GraphPad Prism 9.3 software and analyzed using a nonlinear fit to calculate the probe IC50. […] Compounds were titrated from 20 μM to 20 nM using an ECHO 550 acoustic dispenser (Labcyte) incubated for 1 h at room temperature and subsequent read out.
# The assay is based on the displacement of a fluorescent SMAC mimetic from the binding site.
# BIRC2-BIR3 domain [4] = biological target: T1, BIRC2-BIR3 domain; assay: Isothermal titration calorimetry (ITC); assay type: binding; set-up: BIRC2-BIR3 domain (260–352) was expressed; His6 (N, cleaved yes); GST (N, cleaved yes); made in house; host or cells: E. coli; conditions: 25°C; for Kd: duplicates, mean ± SD, read-out: K D Measured in ITC
# Method: For this protocol, the chamber was pre-equilibrated with the test compound, and the BIRC2-BIR3 domain was titrated in while continuously measuring the rate of exothermic heat evolution. The heat of binding was integrated, corrected, and fitted to an independent single-binding site model based on the manufacturer’s instructions, from which thermodynamic parameters (ΔH and TΔS), equilibrium association and dissociation constants (K A and K D, respectively), and stoichiometry (n) were calculated.
# BIRC2-BIR3 domain [5] = biological target: T1, BIRC2-BIR3 domain; set-up: BIRC2-BIR3 domain (260–352) was expressed; His6 (N, cleaved yes); GST (N, cleaved yes); made in house; host or cells: E. coli; conditions: read-out: Literature FP Assay K I Values, cited from earlier work
# [6] = biological target: T7, BIRC2-BIR3 domain (260-352) (human, UniProt Q13490 260-352); assay: fluorescence polarisation; BIRC2-BIR3 titrated from 40 uM to 600 pM into 30 nM FAM-labelled SMAC probe; 50 mM HEPES pH 7.5, 150 mM NaCl, 5% glycerol, 1 mM TCEP, 0.05% TWEEN20; 1 h at room temperature; conditions: both partners purified
# T7 construct: BIR3 domain of human BIRC2 (cIAP1), residues 260-352; The expression tag was cleaved with TEV protease; also called BIR3 domain of BIRC2; not shown: His6, N-terminal, cleaved; GST, N-terminal, cleaved
# T7 sequence (Q13490 260-352): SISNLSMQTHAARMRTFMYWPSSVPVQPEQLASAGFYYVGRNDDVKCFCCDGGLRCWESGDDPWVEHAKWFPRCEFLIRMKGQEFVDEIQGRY
# BIRC2 BIR2, sequence (Q13490 165-267): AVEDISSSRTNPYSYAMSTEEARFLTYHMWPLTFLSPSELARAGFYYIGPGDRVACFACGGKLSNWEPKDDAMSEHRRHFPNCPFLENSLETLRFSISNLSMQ
# T1 sequence (Q13490 260-352): as the sequence (Q13490 260-352) above
# BIRC2 BIR3, sequence (Q13490 251-372): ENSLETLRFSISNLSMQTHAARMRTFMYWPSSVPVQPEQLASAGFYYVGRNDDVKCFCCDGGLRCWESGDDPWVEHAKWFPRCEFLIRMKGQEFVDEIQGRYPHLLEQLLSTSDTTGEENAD
# BIRC2, sequence (Q13490 whole entry): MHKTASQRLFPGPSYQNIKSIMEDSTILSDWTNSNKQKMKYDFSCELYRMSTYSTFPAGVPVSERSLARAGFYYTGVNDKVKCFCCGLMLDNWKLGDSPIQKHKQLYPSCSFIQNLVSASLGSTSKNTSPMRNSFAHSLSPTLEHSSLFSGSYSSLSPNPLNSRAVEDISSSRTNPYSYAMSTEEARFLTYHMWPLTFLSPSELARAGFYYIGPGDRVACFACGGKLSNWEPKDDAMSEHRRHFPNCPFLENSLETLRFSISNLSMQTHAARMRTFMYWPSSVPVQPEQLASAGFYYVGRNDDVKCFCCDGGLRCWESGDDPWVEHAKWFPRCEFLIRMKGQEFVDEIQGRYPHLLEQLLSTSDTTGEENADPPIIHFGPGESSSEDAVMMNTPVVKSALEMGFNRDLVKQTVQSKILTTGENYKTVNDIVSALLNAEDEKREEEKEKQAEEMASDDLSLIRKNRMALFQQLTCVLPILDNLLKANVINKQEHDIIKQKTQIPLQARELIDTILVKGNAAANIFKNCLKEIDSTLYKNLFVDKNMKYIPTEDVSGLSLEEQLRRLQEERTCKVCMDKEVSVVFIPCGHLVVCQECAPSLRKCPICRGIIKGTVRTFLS
# BIRC4, sequence (P98170 whole entry): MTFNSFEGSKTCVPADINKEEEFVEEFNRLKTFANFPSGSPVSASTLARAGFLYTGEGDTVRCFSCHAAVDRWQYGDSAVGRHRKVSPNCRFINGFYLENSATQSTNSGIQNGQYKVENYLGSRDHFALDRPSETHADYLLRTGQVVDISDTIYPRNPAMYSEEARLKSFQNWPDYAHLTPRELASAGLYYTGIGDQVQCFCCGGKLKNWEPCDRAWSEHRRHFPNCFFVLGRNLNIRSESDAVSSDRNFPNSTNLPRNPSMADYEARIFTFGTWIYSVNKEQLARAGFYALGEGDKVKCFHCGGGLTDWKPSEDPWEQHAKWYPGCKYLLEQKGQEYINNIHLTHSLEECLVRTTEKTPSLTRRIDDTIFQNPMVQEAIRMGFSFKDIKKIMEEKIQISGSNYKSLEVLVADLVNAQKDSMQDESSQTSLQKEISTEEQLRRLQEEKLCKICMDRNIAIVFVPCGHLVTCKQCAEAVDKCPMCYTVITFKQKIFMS
# BIRC3, sequence (Q13489 whole entry): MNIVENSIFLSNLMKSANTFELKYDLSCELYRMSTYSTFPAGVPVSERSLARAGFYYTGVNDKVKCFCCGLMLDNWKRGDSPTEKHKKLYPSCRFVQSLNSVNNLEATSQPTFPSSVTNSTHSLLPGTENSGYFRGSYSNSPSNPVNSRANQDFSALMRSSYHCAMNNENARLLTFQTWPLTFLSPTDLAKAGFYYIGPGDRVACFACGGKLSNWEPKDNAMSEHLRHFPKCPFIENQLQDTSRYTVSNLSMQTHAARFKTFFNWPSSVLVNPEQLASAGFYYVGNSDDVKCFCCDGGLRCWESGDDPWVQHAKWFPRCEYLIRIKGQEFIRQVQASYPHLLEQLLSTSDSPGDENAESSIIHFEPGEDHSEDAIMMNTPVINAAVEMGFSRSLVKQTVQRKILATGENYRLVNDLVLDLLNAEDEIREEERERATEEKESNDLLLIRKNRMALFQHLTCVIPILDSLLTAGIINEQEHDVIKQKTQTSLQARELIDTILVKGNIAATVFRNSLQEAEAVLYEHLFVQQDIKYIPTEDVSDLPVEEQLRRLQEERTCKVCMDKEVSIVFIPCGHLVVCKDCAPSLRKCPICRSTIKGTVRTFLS
# BIRC3 BIR3, sequence (Q13489 236-360): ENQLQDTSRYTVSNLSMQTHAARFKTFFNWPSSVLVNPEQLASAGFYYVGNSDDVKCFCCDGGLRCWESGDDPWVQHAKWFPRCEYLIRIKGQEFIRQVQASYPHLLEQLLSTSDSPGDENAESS
# BIRC3 BIR2, sequence (Q13489 147-253): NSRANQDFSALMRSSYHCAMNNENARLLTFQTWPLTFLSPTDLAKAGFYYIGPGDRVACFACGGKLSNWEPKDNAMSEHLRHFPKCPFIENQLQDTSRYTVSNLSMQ
molecule,measurement,setting,value
CN[C@@H](C)C(=O)N[C@H](C(=O)N1CCC[C@H]1C(=O)N[C@H]1c2ccccc2C[C@H]1OCC#CC#CCO[C@@H]1Cc2ccccc2[C@@H]1NC(=O)[C@@H]1CCCN1C(=O)[C@@H](NC(=O)[C@H](C)NC)C1CCCCC1)C1CCCCC1 [AZD5582],melting temperature of BIRC2 BIR3 domain with compound,BIRC2-BIR3 domain [1]; native domain ∼74°C,92 °C
same,ΔTm at 40 µM,BIRC2-BIR3 domain [1]; read-out: DSF Assay ΔTm,18 °C
same,ΔTm [°C] (Supplementary Table S1),BIRC2-BIR3 domain [1]; first column,18.2 °C
same,ΔTm [°C] (Supplementary Table S1),BIRC2-BIR3 domain [1]; third column,17.9 °C
same,EC50,BIRC2,192 ± 99.3 nM
same,EC50,BIRC3,81.1 ± 14.8 nM
same,EC50,BIRC4,79.6 ± 37.5 nM
same,EC50,BIRC7,8 ± 0.3 nM
same,EC50,BIRC8,76.3 ± 0.1 nM
same,EC50,BIRC7 BIR,16.1 ± 6.3 nM
same,EC50,BIRC8 BIR,85.5 ± 11.1 nM
same,EC50,BIRC2 BIR2,171 ± 151 nM
same,EC50,BIRC3 BIR2,28.5 ± 3.2 nM
same,EC50,BIRC2 BIR3,23 ± 14.4 nM
same,EC50,BIRC3 BIR3,4.1 ± 0.1 nM
same,EC50,BIRC1 BIR[2],776 ± 200 nM
same,Ki,BIRC2-BIR3 domain [3],2.3 ± 0.3 nM
same,Kd,BIRC2-BIR3 domain [4],41.1 ± 2.9 nM
same,Ki,"BIRC2-BIR3 domain [5]; calculated from IC50, ref Hennessy et al. (2013)",6.4 ± 4.3 nM
CN[C@@H](C)C(=O)N[C@H](C(=O)N1CCC[C@H]1C(=O)N[C@H](C(=O)NCCCCCCNC(=O)[C@@H](NC(=O)[C@@H]1CCCN1C(=O)[C@@H](NC(=O)[C@H](C)NC)C1CCCCC1)C(c1ccccc1)c1ccccc1)C(c1ccccc1)c1ccccc1)C1CCCCC1 [BV-6] (I: H-[NMeA][Chg]P[Dip] / II: H-[NMeA][Chg]P[Dip]; linker I:C-II:C via Hexamethylenediamine),"Mean, ΔTm [°C] (Supplementary Table S1)","BIRC2-BIR3 domain [1]; mean of n=3, difference to DMSO control",9.1 °C
same,ΔTm [°C] (Supplementary Table S1),BIRC2-BIR3 domain [1]; first column,9.1 °C
same,ΔTm [°C] (Supplementary Table S1),BIRC2-BIR3 domain [1]; second column,9.1 °C
same,ΔTm [°C] (Supplementary Table S1),BIRC2-BIR3 domain [1]; third column,9.1 °C
same,EC50,"BIRC2; read-out: EC50 ± SEM NanoBRET BIRC2, full-length, HEK293T, n = 4",500 ± 100 nM
same,EC50,"BIRC3; read-out: EC50 ± SEM NanoBRET BIRC3, full-length, HEK293T, n = 4",800 ± 100 nM
same,EC50,"BIRC4; read-out: EC50 ± SEM NanoBRET BIRC4, full-length, HEK293T, n = 4",900 ± 100 nM
same,EC50,"BIRC7; read-out: EC50 ± SEM NanoBRET BIRC7, full-length, HEK293T, n = 4",2600 ± 800 nM
same,EC50,"BIRC8; read-out: EC50 ± SEM NanoBRET BIRC8, full-length, HEK293T, n = 4",2600 ± 200 nM
same,EC50,"BIRC7 BIR; read-out: EC50 ± SEM NanoBRET BIRC7 BIR, single domain, HEK293T, n = 4",2700 ± 800 nM
same,EC50,"BIRC8 BIR; read-out: EC50 ± SEM NanoBRET BIRC8 BIR, single domain, HEK293T, n = 4",3000 ± 100 nM
same,EC50,"BIRC2 BIR2; read-out: EC50 ± SEM NanoBRET BIRC2 BIR2, single domain, HEK293T, n = 4",> 50000 nM
same,EC50 ± SEM NanoBRET BIRC2 BIR2,"BIRC2 BIR2; single domain, HEK293T, n = 4",did not show any binding
same,EC50,"BIRC3 BIR2; read-out: EC50 ± SEM NanoBRET BIRC3 BIR2, single domain, HEK293T, n = 4",18000 ± 25200 nM
same,EC50,"BIRC2 BIR3; read-out: EC50 ± SEM NanoBRET BIRC2 BIR3, single domain, HEK293T, n = 4",800 ± 100 nM
same,EC50,"BIRC3 BIR3; read-out: EC50 ± SEM NanoBRET BIRC3 BIR3, single domain, HEK293T, n = 4",1700 ± 400 nM
same,EC50,"BIRC1 BIR[2]; read-out: EC50 ± SEM NanoBRET BIRC1 BIR[2], single domain, HEK293T, n = 4",10900 ± 2100 nM
same,Ki,"BIRC2-BIR3 domain [3]; BIRC2 BIR3 domain, Cheng-Prusoff from IC50, mean ± SD, n = 3",8.4 ± 0.7 nM
same,ITC TΔS,BIRC2-BIR3 domain [4],6.94 ± 0.1 kcal/mol
same,Kd,BIRC2-BIR3 domain [4],24.8 ± 8.5 nM
same,Ki,BIRC2-BIR3 domain [5]; ref Varfolomeev et al. (2007),169 nM
B1,Kd,[6],14.9 nM
